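In this assay, cells in 96-well plates receive the compound at five concentrations for 48 hours. Endpoints are linearly interpolated between the surrounding concentrations. The concentration for full growth arrest is given as TGI.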
Assays:
Experiment in all cases: inhibition of tumour cell growth, NCI panel, 48 h
SN12C renal = system: SN12C renal
SK-MEL-28 melanoma = system: SK-MEL-28 melanoma
UACC-62 melanoma = system: UACC-62 melanoma
UACC-257 melanoma = system: UACC-257 melanoma
MCF7 breast = system: MCF7 breast
COLO 205 colon = system: COLO 205 colon
BT-549 breast = system: BT-549 breast
SR leukemia = system: SR leukemia
HS 578T breast = system: HS 578T breast
SF-295 CNS = system: SF-295 CNS

CCOc1cc2c(cc1O)C(O)C[C@@H]1[C@@H]2CC[C@]2(C)[C@@H](O)CC[C@@H]12 (stereo not given in full)
TGI (SN12C renal): > 100 µM
TGI (SK-MEL-28 melanoma): > 100 µM
TGI (UACC-62 melanoma): > 100 µM
TGI (UACC-257 melanoma): > 100 µM
TGI (MCF7 breast): > 100 µM
TGI (COLO 205 colon): 60.8 µM
TGI (BT-549 breast): > 100 µM
TGI (SR leukemia): > 100 µM
TGI (HS 578T breast): > 100 µM

COC(=O)Cn1cnc2c(Cl)nc(Nc3ccccc3)nc21
TGI (SN12C renal): > 100 µM
TGI (SK-MEL-28 melanoma): > 100 µM
TGI (UACC-62 melanoma): 67.2 µM
TGI (UACC-257 melanoma): > 100 µM
TGI (MCF7 breast): > 100 µM
TGI (COLO 205 colon): > 100 µM
TGI (BT-549 breast): > 100 µM
TGI (SF-295 CNS): > 100 µM
TGI (SR leukemia): > 100 µM
TGI (HS 578T breast): 54.1 µM

NC(=S)NC/C=C/Cl
TGI (UACC-62 melanoma): > 100 µM
TGI (UACC-257 melanoma): > 100 µM
TGI (MCF7 breast): > 100 µM
TGI (COLO 205 colon): > 100 µM
TGI (BT-549 breast): > 100 µM
TGI (SF-295 CNS): > 100 µM
TGI (SR leukemia): > 100 µM
TGI (HS 578T breast): > 100 µM

Cc1ccccc1NC(=O)CC(=O)NNC(Sc1ccccc1)c1cc(N=Nc2ccc(Br)cc2)ccc1O (stereo not given)
TGI (SN12C renal): > 10 µM
TGI (SK-MEL-28 melanoma): > 10 µM
TGI (UACC-62 melanoma): 8.65 µM
TGI (UACC-257 melanoma): > 10 µM
TGI (MCF7 breast): > 10 µM
TGI (COLO 205 colon): > 10 µM
TGI (BT-549 breast): > 10 µM
TGI (SF-295 CNS): > 10 µM
TGI (SR leukemia): 4.07 µM
TGI (HS 578T breast): > 10 µM

O=C1NC(Cc2ccc(O)cc2)C(=O)NC1Cc1ccc(O)cc1 (stereo not given)
TGI (SN12C renal): > 100 µM
TGI (SK-MEL-28 melanoma): > 100 µM
TGI (UACC-62 melanoma): > 100 µM
TGI (UACC-257 melanoma): > 100 µM
TGI (MCF7 breast): > 100 µM
TGI (COLO 205 colon): > 100 µM
TGI (SF-295 CNS): > 100 µM
TGI (SR leukemia): > 100 µM
TGI (HS 578T breast): > 100 µM

CCN(CC)C(=O)Cn1c2c(c3ccccc31)CCCC2
TGI (SN12C renal): > 100 µM
TGI (SK-MEL-28 melanoma): > 100 µM
TGI (UACC-62 melanoma): > 100 µM
TGI (UACC-257 melanoma): > 100 µM
TGI (MCF7 breast): > 100 µM
TGI (COLO 205 colon): > 100 µM
TGI (BT-549 breast): > 100 µM
TGI (SF-295 CNS): > 100 µM
TGI (SR leukemia): > 100 µM
TGI (HS 578T breast): > 100 µM

Cc1ccc(S(=O)(=O)NC(=O)C2=C3SCCN3C(=O)N(S(=O)(=O)c3ccc(C)cc3)C2c2ccccc2)cc1 (stereo not given)
TGI (SN12C renal): > 100 µM
TGI (SK-MEL-28 melanoma): > 100 µM
TGI (UACC-62 melanoma): > 100 µM
TGI (UACC-257 melanoma): > 100 µM
TGI (MCF7 breast): 90.7 µM
TGI (COLO 205 colon): 43.6 µM
TGI (BT-549 breast): > 100 µM
TGI (SF-295 CNS): > 100 µM
TGI (SR leukemia): > 100 µM
TGI (HS 578T breast): > 100 µM

Cc1c2cccc-2ccc2c3ccccc3n(C(=O)c3ccc(Cl)cc3)c12
TGI (SN12C renal): > 100 µM
TGI (SK-MEL-28 melanoma): > 100 µM
TGI (UACC-62 melanoma): > 100 µM
TGI (UACC-257 melanoma): > 100 µM
TGI (MCF7 breast): > 100 µM
TGI (COLO 205 colon): > 100 µM
TGI (BT-549 breast): > 100 µM
TGI (SF-295 CNS): > 100 µM
TGI (SR leukemia): > 100 µM
TGI (HS 578T breast): > 100 µM

CC(=O)OC[C@H]1On2nnnc2[C@H](OC(C)=O)[C@@H](OC(C)=O)[C@@H]1OC(C)=O
TGI (SN12C renal): > 100 µM
TGI (SK-MEL-28 melanoma): > 100 µM
TGI (UACC-62 melanoma): > 100 µM
TGI (UACC-257 melanoma): > 100 µM
TGI (MCF7 breast): > 100 µM
TGI (COLO 205 colon): > 100 µM
TGI (BT-549 breast): > 100 µM
TGI (SF-295 CNS): > 100 µM
TGI (SR leukemia): > 100 µM
TGI (HS 578T breast): > 100 µM

CCN(CC)C(=O)CCN1CC1
TGI (SN12C renal): > 10 µM
TGI (SK-MEL-28 melanoma): > 10 µM
TGI (UACC-62 melanoma): > 10 µM
TGI (UACC-257 melanoma): > 10 µM
TGI (MCF7 breast): > 10 µM
TGI (COLO 205 colon): > 10 µM
TGI (BT-549 breast): > 10 µM
TGI (SF-295 CNS): > 10 µM
TGI (SR leukemia): > 10 µM
TGI (HS 578T breast): > 10 µM

CCOC(=O)CCC(C(=O)OCC)n1nnc2cc(Nc3c(C)[n+]([O-])c4cc(F)c(OCC)cc4[n+]3[O-])ccc21 (stereo not given)
TGI (SN12C renal): > 100 µM
TGI (UACC-62 melanoma): > 100 µM
TGI (UACC-257 melanoma): > 100 µM
TGI (MCF7 breast): > 100 µM
TGI (COLO 205 colon): > 100 µM
TGI (BT-549 breast): > 100 µM
TGI (SF-295 CNS): > 100 µM
TGI (SR leukemia): > 100 µM
TGI (HS 578T breast): > 100 µM
